Results reported in publication PMC6048268, “Resveratrol Inhibits Key Steps of Steroid Metabolism in a Human Estrogen-Receptor Positive Breast Cancer Model: Impact on Cellular Proliferation” (Frontiers in Pharmacology, 2018).

Columns and labels:
[1] = tested on: MDA-MB-231 cells; experiment: Cell proliferation, Casy cell counting, MDA-MB-231; assay type: cell-based, human
Protocol: MDA-MB-231 and MCF-7 breast cancer cells were purchased from the American Type Culture Collection (ATCC; Manassas, VA, United States) and routinely cultivated at 37°C (95% humidity and 5% CO2) in phenolred-free Dulbecco’s modified Eagle medium F-12 (DMEM/F-12), fortified with 1% PenStrep®-solution and 10% fetal bovine serum (Invitrogen; Thermo Fisher Scientific, Inc., Waltham, MA, United States). All experiments were performed during the exponential growth phase of both cell lines. For the experiments, cells were seeded in 6-well-plates at a density of 1.0 × 10^6 cells per well and allowed to attach for 24 h.
Prior to cell counting with a Casy® TT Cell Counter (OLS OMNI Life Science, Bremen, Germany), the supernatant medium was removed and cells were detached using 400 μl TrypLe® solution (Invitrogen). All experiments were performed in triplicate, and the data were reported as the means ± standard deviation of all values.

[2] = tested on: steroid metabolism in MDA-MB-231 cells; experiment: Inhibition of steroid metabolism by RES in MDA-MB-231 cells (LC–HRMS); assay type: cell-based, human; conditions: MDA-MB-231, 100 μM RES, 100 nM DHEA or E1, 48 h
Protocol: Briefly, cartridges were preconditioned with 2 × 1.0 ml acetonitrile and 3 × 1.0 ml ammonium acetate buffer (10 mM, pH = 5.0), and the samples were loaded onto the columns. After washing with 1 × 1.0 ml ammonium acetate buffer (10 mM, pH = 5.0) and 2 × 1.0 ml acetonitrile/ammonium acetate buffer (10 mM, pH 5.0) 10:90 (v/v), the analytes were eluted using 2 × 650 μl acetonitrile/ammonium acetate buffer (10 mM, pH = 5.0) 95:5 (v/v) and evaporated until dry. Subsequently, samples were reconstituted in 270 μl acetonitrile/ammonium acetate buffer (10 mM, pH = 5.0) 25:75 (v/v) and stored at -80°C until further LC–HRMS analysis.
After media collection, cell monolayers were washed five times with 2.0 ml DPBS, detached using 400 μl TrypLE® solution (37°C, 5 min), mixed with 600 μl DPBS and transferred into sample vials. Aliquots of these suspensions (100 μl each) were diluted and counted using the Casy® TT Cell Counter to determine the exact number of cells per sample well. […]
LC was performed with an UltiMate 3000 RSLC-series system coupled to a maXis HD ESI-Qq-TOF mass spectrometer (Bruker Corporation, Bremen, Germany). […] In the range of m/z 150–500, full-scan mass spectra were recorded.
The modes of inhibition were subsequently determined from Lineweaver–Burk plots, and the corresponding Ki values were calculated from Dixon plots using GraphPad Prism 6.0.

[3] = tested on: SULT1A1 mRNA; experiment: Real-time PCR, SULT1A1 mRNA expression in MCF-7 cells; assay type: cell-based, human; conditions: 10 μM RES; for down-regulation of SULT1A1 mRNA: non-significant
Protocol: (§1) MCF-7 breast cancer cells were seeded in 6-well plates at a density of 1.0 × 10^6 cells per well and allowed to attach overnight. […] Expression profiling of genes of interest was performed as detailed previously ([Mechtcheriakova et al., 2007]; [Meshcheryakova et al., 2016]). Upon treatment, total RNA was isolated using peqGOLD TriFAST^TM reagent (VWR, Vienna, Austria) according to the manufacturer’s protocol. 1 μg RNA was used for cDNA generation using the High Capacity cDNA Reverse Transcription Kit (Thermo Fisher Scientific, Inc.) according to the instructions of the manufacturer. Real-time PCR analysis was performed in the 96-well plate format on a QuantStudio 12K Flex Real-Time PCR System (Thermo Fisher Scientific, Inc.). SULT1A1 and SULT2A1 were detected using the corresponding TaqMan Assays (Thermo Fisher Scientific, Inc.). […] HKGs primers were self-designed using the Primer Express 3.0 software (Thermo Fisher Scientific, Inc.) and validated using the Human Total RNA Master Panel (TaKaRa Bio, Inc., Saint-Germain-en-Laye, France), as described before ([Mechtcheriakova et al., 2007], [2011]); Primers: UBC forward: […]; UBC reverse: […]; GAPDH forward: […]; GAPDH reverse: […]; ACTB forward: […]; ACTB reverse: […]. For relative quantification, data were analyzed by applying the ΔΔCT method. Expression levels of target genes were normalized to the average of the HKGs and shown relative to unstimulated cells (0 h time-point).

[4] = tested on: SULT2A1 mRNA; experiment: Real-time PCR, SULT2A1 mRNA expression in MCF-7 cells; assay type: cell-based, human; conditions: 10 μM RES, 24 and 48 h, data not shown
Protocol: as §1, with “Expression levels of target genes were normalized to the average of the HKGs and shown relative to unstimulated cells (0 h time-point).” left out

[5] = target: estrogen sulfation, S9 fractions from human jejunum; parameters: method as in Furimsky et al. (2008); conditions: ref Furimsky et al. (2008), read-out: Ki, inhibition of estrogen sulfation; cited from earlier work
[6] = tested on: serum E2 concentrations; parameters: method as in Chow et al., 2014; conditions: post-menopausal women, 1 g RES once a day for 12 weeks, non-significant; ref Chow et al., 2014; cited from earlier work

## Oc1ccc(/C=C/c2cc(O)cc(O)c2)cc1 [RES, 3,5,4′-trihydroxy-trans-stilbene]
[1]; 2.5 μM RES, 48 h, seeded 1.0 × 10^6
  number of viable cells: 2.03 ± 0.16 × 10^6 cells
[1]; 100 μM RES, 48 h
  reduction of number of viable cells: 68.6 ± 4.7%
[1]; Homo sapiens, MDA-MB-231, 48 h, steroid-deprived, read-out: IC50 (inhibition of cell growth)
  IC50: 15.1 ± 4.9 µM
[1]; RES 0–100 μM with E1, 48 h
  effect of simultaneous incubation with RES and E1 on cell proliferation: no observable effect
[2]
  effect on formation of DHEA-S, E1-S, E2-S and E2-G: did not affect
  effect on formation of unconjugated AD, T and E2: no significant influence
[3]; 24 h
  down-regulation of SULT1A1 mRNA: 23.6 ± 13.0%
[3]; 48 h
  down-regulation of SULT1A1 mRNA: 30.4 ± 11.0%
[3]; up to 4 h
  effect on transcription of SULT1A1: did not affect
[4]
  effect on SULT2A1 expression: marginally down-regulated
[5]
  Ki: 0.6 µM
[6]
  increase in serum E2 concentrations: 22.4%
